{"source": "patent US11123353B2", "about": "(Zhejiang Chinese Medical University, priority 2019, dated 2021)", "key": {"[1]": {"test_system": "PC-9/GR tumor-bearing nude mouse model", "assay": "In vivo fluorescence imaging targeting test (DiR)", "parameters": "species or system nude mice", "settings": "DiR 7.5 μg·mL^−1, 0.2 mL tail vein, within 24 h", "protocol": "The nude mice with a body mass of approximately 25 g in the established PC-9/GR tumor-bearing nude mouse model were taken, and respectively injected with 0.2 mL of a DiR raw medicine, and DiR-coated RGD/R8-ERG/GEF-LIP and RGD/R8-ERG/GEF-LIP freeze-dried powder (DiR concentration: 7.5 μg·mL^−1) by tail vein injection, the nude mice were anesthetized with isoflurane at different time points, and placed in an in vivo imager to observe the distribution of liposome in vivo (Ex=748 nm, Em=780 nm, and exposure time: 2 s). After 24 h, after the last in vivo imaging was finished, the nude mice were killed, and the heart, liver, spleen, lung, kidney and tumor were taken out and placed in the in vivo imager to observe the distribution of liposome in the in vitro tissues. […] It is speculated that the particle size of freeze-dried powder is smaller than that of RGD/R8-ERG/GEF-LIP, which increases the probability of entering the tumor cells to a certain extent and increases the tumor targeting effect in vivo."}, "A549 cells": {"test_system": "A549 cells", "assay": "Cell cycle by PI flow cytometry, A549 cells", "type": "cell-based, human", "settings": "A549, 48 h", "protocol": "(§1) The number of cells in logarithmic growth phase was adjusted to 1.5×10^5·mL^−1, the cells were inoculated into a 6-well culture plate, and cultured in a 37° C. 5% CO2 incubator until 80% of the cells were fused and then a drug was added for treatment. […] After the drug acted for 48 h, a supernatant and cells were collected, centrifuged at 800 rpm·min^−1 for 10 min, washed once with PBS and fixed overnight with 75% ice ethanol, ethanol was discarded by centrifuging, and the cells were washed twice with PBS. The PBS was discarded, each sample was added with 0.5 ml of a PI staining solution to stain for 15 min at room temperature in the dark, and placed on a flow cytometer for measuring the proportion of cells in each cycle. The experiment was repeated 3 times."}, "PC-9 cells": {"test_system": "PC-9 cells", "assay": "Cell cycle by PI flow cytometry, PC-9 cells", "type": "cell-based, human", "settings": "PC-9, 48 h", "protocol": "as §1\n[…]. Other operations were the same as above."}, "[2]": {"test_system": "PC-9/GR lung cancer xenografts", "assay": "Preliminary pharmacodynamic test in PC-9/GR tumor-bearing nude mice", "type": "in vivo, BABL/C nude mouse", "description": "A PC-9/GR lung cancer cell line was digested from a culture flask, and then resuspended in 0.9% normal saline, and the cell concentration was adjusted to 2.5×10^7·mL^−1 and the cell was inoculated into the left axilla of BABL/C nude mouse. Each nude mouse was inoculated with 0.2 mL of a cell suspension.\nThe nude mice in each group were administered by tail vein injection.\nAfter starting administration, the body mass of the nude mouse was regularly measured once, and the longest and shortest diameters of the tumor were measured with a vernier caliper to calculate the volume of the tumor. After consecutively administrating 7 times, the tumor volume of each group was measured and the tumor inhibitory rate of each administration group was calculated. Tumor volume (mm^3)=½×Long diameter (mm)×Short diameter (mm)^2\nTumor inhibitory rate (%)=(Average tumor weight of model control group (mg)—Average tumor weight of administration group (mg))/Average tumor weight of model control group (mg)×100%"}, "[3]": {"assay": "In vitro release of GEF by dialysis in different pH release media", "type": "physicochemical", "settings": "for cumulative release percentage of GEF: 37° C., listed as GEF raw medicine", "protocol": "Due to its high lipid solubility, ERG could be dissolved in pure methanol or pure ethanol. However, the membranes of the liposomes directly ruptured in pure methanol or pure ethanol, and a release medium was difficult to meet the “sink” condition of ERG. Therefore, the in vitro release of ERG was not investigated in the experiment. […] Therefore, the in vitro release of GEF drug under different pH conditions was investigated in the experiment. […] Calculation was carried out according to the following formula: Cumulative release percentage Q (%)=(c1×V0+Σn=1^t-1Cv)/M0×100%\nIn the experiment, the in vitro release of GEF drug under different pH conditions was investigated. […] For specific operation, please refer to “5.7 Release Rate” in Part II in details."}}, "note": "Where “and” joins values, the source holds several entries; their conditions need not be identical. Identical values can stand only once."}
{"smiles": "CCCCCCCCCCCCCCCCCCN1/C(=C/C=C/C=C/C=C/C2=[N+](CCCCCCCCCCCCCCCCCC)c3ccccc3C2(C)C)C(C)(C)c2ccccc21.[I-]", "note": "[DiR raw medicine]", "values": [{"measurement": "fluorescence accumulation in the tumor site", "setting": "[1]", "value": "not accumulated in the tumor site"}]}
{"smiles": "CC(C)[C@@H](C)/C=C/[C@@H](C)[C@H]1CC[C@H]2C3=CC=C4C[C@@H](O)CC[C@]4(C)[C@H]3CC[C@]12C", "note": "[ERG, ergosterol]", "values": [{"measurement": "S phase fraction", "setting": "A549 cells; ERG 20 μM", "value": "32.05±2.27", "unit": "%"}, {"measurement": "G2/M phase fraction", "setting": "PC-9 cells; ERG 40 μM", "value": "13.58±1.80", "unit": "%"}, {"measurement": "S phase fraction", "setting": "PC-9 cells; ERG 40 μM, ERG+GEF 40+5 μM", "value": "26.93±2.02", "unit": "%"}]}
{"smiles": "COc1cc2ncnc(Nc3ccc(F)c(Cl)c3)c2cc1OCCCN1CCOCC1", "note": "[GEF, gefitinib]", "values": [{"measurement": "G0/G1 phase fraction", "setting": "A549 cells; GEF 20 μM, combination of two drugs", "value": "72.60±0.81", "unit": "%"}, {"measurement": "G0/G1 phase fraction", "setting": "PC-9 cells; GEF 5 μM, ERG+GEF 40+5 μM", "value": "78.35±1.58", "unit": "%"}, {"measurement": "average tumor weight", "setting": "[2]; compared with the model control group", "value": "highly significant difference"}, {"measurement": "tumor volume change", "setting": "[2]; course over 15 days of administration", "value": "rapid growth trend after the 9th day of administration"}, {"measurement": "cumulative release percentage of GEF", "setting": "[3]; pH 6.4 40% methanol-containing phosphate buffer, 24 h", "value": "98.91% and 99.12%"}, {"measurement": "release model fitting", "setting": "[3]; pH 6.4 release medium (FIG. 12)", "value": "conforms to the first-order kinetic equation"}, {"measurement": "release model fitting", "setting": "[3]; pH 6.4 release medium (FIG. 25; freeze-dried powder first 4 h)", "value": "more in line with the first-order model"}, {"measurement": "cumulative release percentage of GEF", "setting": "[3]; pH 7.4 40% methanol-containing phosphate buffer, within 24 h", "value": "76.91% and 81.10%"}, {"measurement": "fitting correlation coefficient of the first-order kinetic equation", "setting": "[3]; pH 7.4 release medium", "value": 0.9952}, {"measurement": "release model fitting", "setting": "[3]; pH 7.4 release medium (FIG. 12)", "value": "closer to the Higuchi equation"}, {"measurement": "release model fitting", "setting": "[3]; pH 7.4 release medium (FIG. 25; freeze-dried powder first 4 h)", "value": "more in line with the Higuchi model"}]}
